# Measurements: US11890315B2, “Stable ascorbic acid compositions and methods of using same” (RENOVION, INC., priority 2017, dated 2024)
# Tests used:
# [1] = Stability: oxidized glutathione and reduced ascorbic acid after 4 weeks of storage at 5° C.; type: physicochemical; settings: reduced ascorbic acid maintained after 4 weeks at 5° C.; pH and atmosphere per formulation
# Source text: Oxidized glutathione is associated with the generation of protein-carbonyls via glutathionlyation, which occurs when oxidized glutathione dissociates and attaches to proteins. […] Additionally, when ascorbic acid is oxidized into dehydroascorbate (DHA), DHA can break down and result in the formation of protein adducts in process called ascorbylation (Simpson et al., Biochim biophys Acta 2000; 1501:12-24). […] Specifically, nitrogen-sparged samples were mixed under anaerobic conditions sparged with nitrogen, and the samples were packaged using nitrogen bubbling. Ambient samples were mixed under room air conditions and were not bubbled with nitrogen. The formulations were stored at 5° C. for 4 weeks, and the percent of oxidized glutathione (GSSG) and ascorbic acid (ASC) was measured for each sample according to standard techniques.
# [2] = Storage stability about 72 hours at 2-8° C.; type: physicochemical; settings: −20° C., 5° C., ambient; data not shown
# Experimental: The effects of storage on ascorbic acid compositions including varying amounts of buffer with a consistent glutathione concentration were tested. […] At testing, Formulations 1-9 were evaluated to determine ascorbic acid and reduced and oxidized glutathione concentrations. A standard RP-HPLC method for these analytes was used. The method was validated including specificity, accuracy, repeatability, LOQ, mini linearity, in-vial NPLC sample stability and stability-indicating check with informal forced degradation samples. The pH of each formulation was determined using a pH probe place in a sample of each solution. Results are shown in FIG. 15. ascorbic (ACS) alone was unstable under the conditions tested (−20° C., 5° C., ambient) (data not shown).
# MRSA UAB-3 = experiment: In vitro MIC against bacterial isolates; type: cell-based, Methicillin-resistant Staphylococcus aureus; settings: Anaerobic (+nitrate); 12 hrs
# Experimental: (§1) The MIC for laboratory clinical isolate Pseudomonas aeruginosa (Schroeter) Migula (ATCC BAA-47 (PAO1)) was also tested. The MICs were determined under anaerobic conditions on media supplemented with nitrate, under aerobic conditions supplemented with nitrate, or under ambient conditions.
# (§2) The clinical isolates were inoculated in duplicate on agar plates overnight under anaerobic conditions at 36° C.±1.0° C. in a 96-well plate. Laboratory isolates of Burkholderia cepacia were also grown in duplicate overnight under aerobic conditions at 36° C.±1.0° C. in a 96-well plate. […] Ten dilutions for each test solution were examined: 50%, 25%, 12.5%, 6.25%, 3.13%, 1.57%, 0.78%, 0.39%, 0.2%, and 0.1%. The colony isolates were incubated for 12 hours or 24 hours at 36° C.±1.0° C. under anaerobic conditions in media comprising Luria Agar/Broth and nitrate with one of the three test solutions. […] MICs were determined via visual inspection and OD620.
# MRSA UAB-1 = experiment: In vitro MIC against bacterial isolates; type: cell-based, Methicillin-resistant Staphylococcus aureus; settings: Anaerobic (+nitrate); 12 hrs
# Experimental: as §1, §2
# Pa BAA-47 (PAO1) = experiment: In vitro MIC against bacterial isolates; type: cell-based, Pseudomonas aeruginosa; settings: Anaerobic (+nitrate); 12 hrs
# Experimental: as §1, §2
# Pa UAB-NM-1 = experiment: In vitro MIC against bacterial isolates; type: cell-based, Pseudomonas aeruginosa; settings: Anaerobic (+nitrate); 12 hrs
# Experimental: as §1, §2
# Pa UAB-M-2 = experiment: In vitro MIC against bacterial isolates; type: cell-based, Pseudomonas aeruginosa; settings: Anaerobic (+nitrate); 12 hrs
# Experimental: as §1, §2
# Pa UAB-NM-5 = experiment: In vitro MIC against bacterial isolates; type: cell-based, Pseudomonas aeruginosa; settings: Anaerobic (+nitrate); 12 hrs
# Experimental: as §1, §2
# Pa UAB-NM-3 = experiment: In vitro MIC against bacterial isolates; type: cell-based, Pseudomonas aeruginosa; settings: Anaerobic (+nitrate); 12 hrs
# Experimental: as §1, §2
# [3] = test system: dF508−/− primary human bronchial epithelial cells; experiment: Mucociliary transport rate, ASL and CBF by micro-optical coherence tomography (uOCT); type: cell-based; settings: isolated components vs PBS control; FIG. 2
# Source text: Briefly, primary human bronchial epithelial cells were isolated from the airways of patients with cystic fibrosis and were terminally differentiated. All cells isolated from cystic fibrosis patients were represented by the dF508−/− genotype. […] Micro-optical coherence tomography (uOCT) was used to assess the mucociliary transport rate according to methods described in Liu, L., et al., PLoS One.
# As described above in Example 2, primary human bronchial epithelial cells were isolated from the airways of patients with cystic fibrosis, and uOCT was used to assess the mucociliary transport rate according to methods described in Liu, L., et al., PLoS One.
# MCT rate was assessed in a mucociliary clearance assay according to the methods in Example 3 above.
SMILES,% ASC [1],stability [2],MIC (MRSA UAB-3),MIC (MRSA UAB-1),MIC (Pa BAA-47 (PAO1)),MIC (Pa UAB-NM-1),MIC (Pa UAB-M-2),MIC (Pa UAB-NM-5),MIC (Pa UAB-NM-3),mucociliary transport rate [3]
"O=C1O[C@H]([C@@H](O)CO)C(O)=C1O [Ascorbic Acid Only, ascorbic acid]",77.88%,unstable,–,–,–,–,–,–,–,–
"O=C([O-])O.[Na+] [HCO3, sodium bicarbonate]",–,–,25%,25%,12.5%,12.5%,12.5%,12.5%,12.5%,did not alter the mucociliary transport rate
"N[C@@H](CCC(=O)N[C@@H](CS)C(=O)NCC(=O)O)C(=O)O [glutathione, Glutathione]",–,–,–,–,–,–,–,–,–,did not alter the mucociliary transport rate
